Source: patent US11007269B2, “P53 degradation inducing molecule and pharmaceutical composition” (Tokyo University of Science Foundation, priority 2016, dated 2021)

System: senescence-associated acidic β-galactosidase (SA-β-gal) inducing TIG3 cells
Assay: FACS analysis of SA-β-gal in doxorubicin senescence-induced TIG3 cells (anti-aging action)
Assay type: cell-based, human
Settings: 50 μM added after doxorubicin (150 nM), 48 hours
Experimental: In Example 5, an anti-aging action in a senescence-associated acidic β-galactosidase (SA-β-gal) inducing TIG3 cells (human embryonic fibroblast) in which TIBC-CANDDY_MLN had been added was evaluated by FACS analysis.
TIG3 cells as normal cells were seeded in a 24-well plate at a cell density of 8×10^4 cells/well, and then cultured under conditions of 37° C. and 5 vol % CO2 for 16 hours.
After 16 hours from cell seeding, doxorubicin was added to each well at 150 nM/well to induce cellular senescence. As a medium, a serum-free medium (37° C.) in which 1 mass % L-glutamine solution (Sigma-Aldrich) was added to D-MEM (high D-glucose, phenol red, sodium pyruvate (Wako Pure Chemical Industries, Ltd.)) was used. It is noted that the L-glutamine solution was added immediately before use. After the addition of doxorubicin, culture was performed under conditions of 37° C. and 5 vol % CO2 for 24 hours.
After 24 hours from induction of senescence, TIBC-CANDDY_MLN was added to TIG3 cells as follows. As a medium, a serum-free medium (37° C.) in which 1 mass % L-glutamine solution (Sigma-Aldrich) was added to D-MEM (high D-glucose, phenol red, sodium pyruvate (Wako Pure Chemical Industries, Ltd.)) was used. It is noted that the L-glutamine solution was added immediately before use. A DMSO solution containing TIBC-CANDDY_MLN was mixed with the medium so that the concentration of DMSO was 1 vol %, and added to each well at 500 μL/well, and cultured under conditions of 37° C. and 5 vol % CO2 for 48 hours. As a control, DMSO was used.
For quantification of SA-β-gal as a senescence marker, a commercially available kit (Cellular Senescence Detection Kit-SPiDER-βGal (DOJINDO LABORATORIES)) was used. […]
A BD FACSCanto™ II (BD Biosciences) was used for flow cytometry to detect SA-β-gal labeled with FITC. […] A histogram of the FITC strength was created by an analysis software FlowJo™ (TOMY Digital Biology Co., Ltd.), and the senescence suppressing action by TIBC-CANDDY_MLN was evaluated from a shift in the histogram.

With `CC(C)C[C@H](NC(=O)CNC(=O)c1cc(Cl)ccc1Cl)C(=O)NCCCCCCC(=O)Nc1ccc(C(=O)/C=C/c2ccc(I)cc2)cc1` [TIBC-CANDDY_MLN] the “cellular senescence suppressing action” value was “about 80%” and the “shift to SA-β-gal (senescence marker) positive (FACS histogram)” value was “hardly observed”.
